From patent US20240336679A1, “METHODS FOR THE TREATMENT OF CANCER” (INSTITUT REGIONAL DU CANCER DE MONTPELLIER, priority 2021, published 2024)
Counter-ions that a name gives are not always drawn.

What was measured:
[1] = test system: PHGDH, PSAT1 and PSPH mRNA in C2C12 myoblasts cocultured with IB115 liposarcoma cells; assay: Anti-IL-6 assay: RT-qPCR of serine synthesis genes in C2C12 myoblasts cocultured with IB115 cells treated with IL-6 signaling inhibitors; type: cell-based, mouse; details: FIG. 11; for PSPH relative mRNA level: co-culture myoblasts with LPS, without inhibitors about 3.1; for PHGDH relative mRNA level / PSAT1 relative mRNA level: co-culture myocytes with LPS; for PHGDH relative mRNA level: without inhibitors 1.6; for PSAT1 relative mRNA level: without inhibitors about 2; for IL-6 dependent enhancement of the serine synthesis way (PHGDH, PSAT, PSPH mRNA): C2C12 myoblasts cocultured with IB115
Procedure: (§1) Total mRNAs were isolated from myoblasts (C2C12 cells) using TRIzol Reagent (Invitrogen) as previously described (Riscal et al. Mol Cell. 2016 Jun. 16; 62 (6): 890-902). Afterwards, Reverse Transcription of 1 μg mRNA into cDNA was performed using SuperScript III Reverse Transcriptase (Invitrogen), according to the manufacturer protocol. Quantification of the produced cDNA was achieve by Real-time quantitative PCRs on a LightCycler 480 SW 1.5 apparatus (Roche) using SYBR Green mix (Ozyme) plus the oligonucleotides of interest, and the following amplification protocol: 45 cycles of 95° C. for 4 s, 60° C. for 10 s, and 72° C. for 15 s. Analysis of the relative gene expression (mRNA copy number) was realized using Ct values and the 2^−ΔCt method, normalized on at least two different housekeeping genes (TBP, Tubuline, RPL13a, Gus B, β-microglobuline).
Relative quantities of mRNA of MDM2 direct target genes PHGDH, PSAT1 and PSPH were determined by RT-qPCR in C2C12 cells culture alone or in coculture with IB115 cells treated or not with a blocking anti-IL-6 antibody (Wijdenes et al., Mol Immunol, 28 (1991), p. 1183),i.e., IL-6 receptor inhibitor such as Bazedoxifène, or STAT3 inhibitors such as C188-9 and Stattic (mean+/−SD; n=3 independent experiments). Statistical significance was evaluated using non-parametric Mann-Whitney U tests.

[2] = test system: cancer cells exhibiting recruitment of MDM2 to chromatin (C-MDM2 (+)); assay: Cell viability / IC50 measurement (SRB assay) upon SP141 treatment; type: cell-based, human; details: FIG. 8; as soon as 24 hours after treatment with low concentrations
Procedure: Cell survival after SP141, IL-6, IL-6 inhibitor and/or serine/glycine deprived diet treatment (IC50) was determined using the Sulforhodamine B assay (SRB assay). Cells were seeded in 96-well plates (Sarsted) in complete DMEM medium as to obtain triplicates for each conditions (5 000 cells/well). After 24 h, serial dilutions of the indicated compounds were added to the cells. […] Fixed SRB was finally dissolved in 10 mM Tris-HCl solution and 560 nm absorbance was read using a PHERAstar FSX plate reader.

XG-6 cells = assay: Growth of IL-6 dependent cell line XG-6; type: cell-based; details: FIG. 3; RPMI, 2 ng/ml, 3 days; no growth without IL-6
Procedure: 50 000 XG-6 cells (IL-6 dependent cell line) were seeded in an equal number in four plastic dishes and cultured in suspension in 2 ml of RPMI (Gibco) medium at 37° C./5% CO2 for 3 days. The fourth dishes' conditions are as follows: • XG-6 cells cultured in 2 ml of RPMI in the presence of 2 ng/ml of recombinant IL-6 (obtained with the method illustrated in Wijdenes et al., Mol Immunol, 28 (1991), p. 1183) • XG-6 cells cultured in 2 ml of RPMI, • XG-6 cells cultured in 2 ml of MCF7 cell lines supernatant as previously obtained, • XG-6 cells cultured in 2 ml of IB115 cell lines supernatant as previously obtained.

[3] = test system: PHGDH, PSAT1 and PSPH mRNA in C2C12 myoblasts cocultured with IB115 liposarcoma cells; assay: shRNA assay: RT-qPCR of serine synthesis genes in C2C12 myoblasts cocultured with IB115 cells depleted of human IL-6; type: cell-based, mouse; details: FIG. 4, myocytes cultured with LPS (IB115) and treated with shIL-6
Procedure: as §1
Relative quantities of mRNA of MDM2 direct target genes PHGDH, PSAT1 and PSPH were determined by RT qPCR in C2C12 myoblasts cultured alone or in coculture with IB115 cells treated or not for shRNA mediated depletion of human IL-6 (shIL-6). Data were normalized to the corresponding control samples prepared from IB115 cells treated with a control shRNA (mean SD n=3 independent experiments) Statistical significance was evaluated using non parametric Mann Whitney U tests.

Cc1c(-c2ccc(O)cc2)n(Cc2ccc(OCCN3CCCCCC3)cc2)c2ccc(O)cc12 [BZA, 1-[[4-[2-(Hexahydro-1H-azepin-1-yl)ethoxy]phenyl]methyl]-2-(4-hydroxyphenyl)-3-methyl-1H-indol-5-ol monoacetate (salt)]
PSPH relative mRNA level ([1]; 100 nM): about 1.8 A.U | PHGDH relative mRNA level ([1]; 100 nM): about 0.6 A.U | PSAT1 relative mRNA level ([1]; 100 nM): about 1.3 A.U

COc1ccc(S(=O)(=O)Nc2cc(-c3c(O)ccc4ccccc34)c(O)c3ccccc23)cc1 [C188-9]
IL-6 dependent enhancement of the serine synthesis way (PHGDH, PSAT, PSPH mRNA) ([1]; 10 nM): decreases | PSPH relative mRNA level ([1]; 10 nM): about 1.5 A.U | PHGDH relative mRNA level ([1]; 10 nM): about 0.5 A.U | PSAT1 relative mRNA level ([1]; 10 nM): about 1.3 A.U

COc1ccc2[nH]c3c(-c4cccc5ccccc45)nccc3c2c1 [SP141]
cell viability of cancer cells C-MDM2 (+) [2]: important loss of cell viability

O=[N+]([O-])c1ccc2c(c1)S(=O)(=O)C=C2 [Stattic]
IL-6 dependent enhancement of the serine synthesis way (PHGDH, PSAT, PSPH mRNA) ([1]; 10 nM): decreases | PSPH relative mRNA level ([1]; 10 nM): about 1.75 A.U | PSAT1 relative mRNA level ([1]; 10 nM): ~1.5 A.U

recombinant IL-6: recombinant IL-6 obtained with the method of Wijdenes et al.; positive control for XG-6 growth
Quantity of XG-6 cells (XG-6 cells): more than 150000 AU

shIL-6: shRNA to inactivate human IL-6 expression; a sequence may be 5′-GACACTATTTTAATTATTTTTAA-3′ (shRNA, chemistry and expression mode not given here, further chemistry not given here)
relative mRNA level of PSAT ([3]; myocytes alone about 1, with LPS about 1.75): about 1 AU | relative mRNA level of PSPH ([3]; myocytes alone about 1, with LPS about 2.5): about 1 AU | relative mRNA level of PHGDH ([3]; myocytes alone about 1, with LPS about 4.4): about 1.75 AU
